# Experimental data published in PubChem BioAssay AID179 (DTP/NCI, 2004).
# Values joined by “and” are separate entries in the source; they are usually repeats but may differ in a detail not shown here. Equal entries are not always repeated. Active and inactive are the calls of the source.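 Rule for the calls: active = compounds giving half or more protection of infected cells from virus-caused growth loss, again on retest; inactive = the rest.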
# Test system: CEM cells HIV-1 protection, formazan growth assay
# Experiment: NCI AIDS Antiviral Assay
# Details: for IC50: measured here: growth of uninfected CEM cells
# In short: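 Screen of anti-HIV-1 activity in human CEM cells using a formazan-based growth measurement at five drug concentrations. Hits with 50% or greater protection were repeated, and confirmation required reproducible complete protection.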
Structure (SMILES),EC50,IC50,outcome
CC(C)NC(=O)N(Nc1ccccc1)C(C)(C)C,> 200 µM,110 µM,–
CC(C)(CO)C(O)C(=O)NCCS(=O)(=O)O (centres undefined),> 200 µM,> 200 µM,–
CCC[CH2][Sn]([CH2]CCC)([O]C(=O)c1ccc(C)c(N)c1)[O]C(=O)c1ccc(C)c(N)c1,> 18.6 µM,0.457 µM,–
O=c1ccc2cc3ccoc3c(O)c2o1,> 447 µM,135 µM,–
COc1ccc(CCc2ccccc2CC(=O)O)cc1,> 933 µM,589 µM,–
O=C1[C@@H](O)[C@@H]2CCCC[C@@]23CCCN13,> 200 µM,> 200 µM,–
Cn1cnc([N+](=O)[O-])c1Sc1nncc2[nH]cnc12,46.8 µM,> 200 µM,–
COc1ccc2c(c1)[n+](=O)c(C(=O)C/C(=N/OCCCc1ccccc1)C(=O)NC13CC4CC(CC(C4)C1)C3)c(C)n2[O-],> 39.8 µM,> 39.8 µM,–
Cn1c(-c2cccs2)cc(-c2ccsc2)c1-c1cccs1,–,–,inactive
Cc1ccc(O)c(Cc2cc(C)cc(Cc3cc(C)ccc3O)c2O)c1,> 102 µM,20 µM,–
CC1CC(C)(C)N2CCC(C(=O)N3Cc4cc5ccccc5nc4C3)C2O1 (centres undefined),> 200 µM,> 200 µM,–
COC(=O)/C(C#N)=C(\N)C(Cl)(Cl)Cl,–,–,inactive
Cc1cc(C)c(S(=O)(=O)N(CCCCCN)OCCCN)c(C)c1,> 200 µM,30.2 µM,–
CC/C=C/c1cc2cc[nH]c2c2c1C(C)C[C@@H]2C (some centres undefined),–,–,inactive
CN(NC(=O)c1cccs1)C1=NCCCN1,> 200 µM,> 200 µM,–
Cn1c(=O)cc(NNc2ccccc2)[nH]c1=O,> 200 µM,3.09 µM,–
Cc1ccc(C2=NO[C@@H]3C(=O)N(c4ccc(Cc5ccc(N6C(=O)[C@H]7C(c8ccc(C)cc8)=NO[C@H]7C6=O)cc5)cc4)C(=O)[C@H]23)cc1,> 11.5 µM,> 11.5 µM,–
Cc1nn(C(=O)c2ccccc2O)c2c1C(c1ccco1)SC(N)=N2 (centres undefined),> 20 µM,1.23 µM,–
COc1c(OC2OC(CO)C(O)C(O)C2O)cc2occ(-c3ccc4c(c3)OCO4)c(=O)c2c1O (centres undefined),> 200 µM,> 200 µM,–
CCN(CC)C1CS(=O)(=O)OC(c2ccccc2)=C1C (centres undefined),> 316 µM,22.4 µM,–
O=S(=O)(O)CCCCS(=O)(=O)O,> 200 µM,> 200 µM,–
N=C1C=CC(=C(c2ccc(N)cc2)c2ccc(N)cc2)C=C1,–,–,inactive

Structure (SMILES),EC50,IC50,outcome
CC1CCCC(C(=O)/C(=C/c2cccc(Cl)c2)C(=O)C(=O)O)C1 (centres undefined),> 15.5 µM,> 15.5 µM,–
Cn1cc(NC(=O)[C@@H]2CCC(N)=N2)cc1C(=O)NCCC(=N)N,–,–,inactive
CC(=O)OC1CCC2C3CCc4c(C)ccc(OS(=O)(=O)c5ccccc5)c4C3CCC12C (centres undefined),> 200 µM,> 200 µM,–
CN1CCN(C(=O)CCNC(=O)Cc2ccc(C(=O)c3ccccc3)cc2)CC1,> 200 µM,64.6 µM,–
CN(C)C1CCC2(CC1)OCCO2,–,–,inactive
COC1CC(OC2C(C)OC(OC3C(C)OC(OC4C(O)CC(O[C@H]5CC[C@@]6(C)C(=CC[C@]7(O)[C@@H]6C[C@@H](OC(=O)/C=C/c6ccccc6)[C@@]6(C)[C@]7(O)CC[C@@]6(O)C(C)=O)C5)OC4C)CC3OC)CC2OC)OC(C)C1O (some centres undefined),> 200 µM,37.2 µM,–
CC(C)=CCN1c2ccccc2[C@@]2(CC=C(C)C)CCN(C)[C@@H]12,> 200 µM,33.1 µM,–
NNc1nc2ccccc2c(=O)n1NC(=O)C(=O)Nc1cccc(C(F)(F)F)c1,> 324 µM,> 324 µM,–
CCC(CCCN)Nc1cc(OC)cc2cccnc12 (centres undefined),> 200 µM,6.31 µM,–
CC(=O)OCC1OC(n2c(C)cc(-c3ccco3)c(C#N)c2=S)C(OC(C)=O)C(OC(C)=O)C1OC(C)=O (centres undefined),126 µM,> 200 µM,–
CC(C)(C)c1cc(C(O)(C(F)(F)F)C(F)(F)F)c(S)c(C(O)(C(F)(F)F)C(F)(F)F)c1,> 200 µM,3.47 µM,–
[C-]#[O+].[C-]#[O+].[C-]#[O+].[Mo].c1ccc([PH+](CC[As](c2ccccc2)c2ccccc2)CC[As](c2ccccc2)c2ccccc2)cc1,–,–,inactive
CCN1CCC(O)(c2ccc(Oc3ccc(Cl)cc3)cc2)C(C(=O)c2ccc(Oc3ccc(Cl)cc3)cc2)C1 (centres undefined),> 200 µM,7.59 µM,–
CSCCC(C(=O)O)N(CC1(O)OCC(O)C(O)C1O)N=O (centres undefined),–,–,inactive
CCOC(=O)c1cn(CC)c2cc3c(cc2c1=O)CCS3(=O)=O,> 200 µM,> 200 µM,–
NNC(=O)c1c(SCc2ccccc2)nc2c3ccccc3ccn12,> 200 µM,15.8 µM,–
S=C(Nc1ccccc1)Nc1ccccc1S,> 200 µM,112 µM,–
Cc1cc2c(C)c(-c3ccccc3)c(=O)oc2c(C#N)c1C,> 200 µM,170 µM,–
CN(C)CCCN1N=Nc2cccc3cccc1c23,–,–,inactive
Nc1c(N=O)c(=O)n(Cc2ccccc2)c(=O)n1Cc1ccccc1,> 200 µM,11.7 µM,–
O=C(CC1C=CCS1(=O)=O)NCc1ccccc1 (centres undefined),> 97.7 µM,> 97.7 µM,–
CCOC(=O)Cn1c(=O)c2nc(SC)sc2n(-c2ccccc2)c1=O,> 200 µM,> 200 µM,–

Structure (SMILES),EC50,IC50,outcome
CCOC(=O)c1sc2c(c1OC(=O)c1ccc(OC)cc1)c(=O)n(-c1ccccc1)c(=S)n2-c1ccccc1,> 200 µM,38.9 µM,–
CN=C(NN)NS(=O)(=O)c1cc(C)c(Cl)cc1S,–,–,inactive
COc1cc(OC)cc(Oc2nc3ccccc3nc2C(=O)O)c1,> 200 µM,> 200 µM,–
COc1ccc(-n2c(N)c(C#N)c(C#N)c2-c2cccc([N+](=O)[O-])c2)cc1,> 200 µM,186 µM,–
CC12CCC(O)CC1=CCC1C2CCC2(C)C1CC1=CC(C#N)C(=O)NC12O (centres undefined),> 49 µM,28.8 µM,–
Cc1cc(Cl)ccc1NC(=O)/C(=N\NC(C)(C)C)C(C#N)c1nc(-c2ccc([N+](=O)[O-])cc2)cs1 (centres undefined),2.63 µM,10.2 µM,–
CC1CCCN2C(=O)CN(c3ccccc3)CC(=O)N12 (centres undefined),> 200 µM,> 200 µM,–
CC(=O)Oc1ccc(/C=C/C(=O)O[C@@H](C(=O)O)[C@@H](OC(=O)/C=C/c2ccc(OC(C)=O)c(OC(C)=O)c2)C(=O)O)cc1OC(C)=O,> 30.2 µM,> 30.2 µM,–
N/N=C1/C2CN3CCN(C2)CC1(c1ccc([N+](=O)[O-])cc1)C3,> 200 µM,> 200 µM,–
CCn1ccc(=O)nc1,> 200 µM,> 200 µM,–
CCOC(=O)Cc1nnc2n(-c3ccccc3)c(=O)c3ccccc3n12,> 100 µM,> 100 µM,–
Cc1ccc2c(c1)C1(SC(C)C(=O)N1c1ccc(I)cc1)C(=O)N2 (centres undefined),> 200 µM,20 µM,–
O=C(Nc1ccccc1)N(CCCCN(Cc1ccccc1)C(=O)Nc1ccccc1)Cc1ccccc1,> 200 µM,112 µM,–
Nc1nc(N)c(N)c(Nc2ccccc2)n1,> 200 µM,20.4 µM,–
Cc1cc(Cl)ccc1NC(=O)CC1SC(N)=NC1=O (centres undefined),> 832 µM,> 832 µM,–
COc1ccc(CC2NCCc3cc(OC)c(OC)cc32)cc1Br (centres undefined),> 240 µM,33.9 µM,–
Cc1ccc(CC2(OCCN(C)C)CCC(C(C)(C)C)CC2)cc1 (centres undefined),> 200 µM,3.16 µM and 2.95 µM,–
OC[C@H](O)[C@@H](OCc1ccccc1)[C@H](NCc1ccccc1)c1cccs1,> 200 µM,97.7 µM,–
C=C1CC(Cn2ccc(=O)[nH]c2=O)(c2ccc(OC)cc2)OC1=O (centres undefined),> 200 µM,2.75 µM,–
CN(C)C(=S)OC(Cn1cncn1)c1ccc(Cl)cc1Cl (centres undefined),> 513 µM,427 µM,–
O=C(c1ccccc1)c1ccc(SSc2ccc(C(=O)c3ccccc3)cc2[N+](=O)[O-])c([N+](=O)[O-])c1,> 200 µM,13.8 µM,–
CCC1NC(=O)C1NC(=O)OC (centres undefined),–,–,inactive

Structure (SMILES),EC50,IC50,outcome
Cc1cn(C2O[C@@H]3CN(O)[C@H](C)[C@]3(O)C2O)c(=O)[nH]c1=O (some centres undefined),> 200 µM,> 200 µM,–
O=C(c1ccccc1)[C@H]1Nc2cnccc2C2c3ccccc3CC21 (some centres undefined),> 30.9 µM,> 30.9 µM,–
COC(=O)c1ccc(/C=C2\Cc3ccccc3C2=O)cc1,> 200 µM,> 200 µM,–
COc1ccc(SCc2cc(OCc3ccccc3)c(OCc3ccccc3)c(OCc3ccccc3)c2)cc1,> 200 µM,> 200 µM,–
CC1(C)N(OC2CCCCO2)C(c2ccccc2)C(c2ccccc2)=[N+]1[O-] (centres undefined),> 200 µM,35.5 µM,–
CCC(=O)OC1CC2=CC(=O)CCC2(C)C2CCC3(C)C(OC(=O)CC)CCC3C12 (centres undefined),> 200 µM,> 200 µM,–
O=S(=O)(O)c1ccc2c(c1)NN(c1ccc(/C=C/c3ccc(N=Nc4ccc(/C=C/c5ccc(N6Nc7ccc(S(=O)(=O)O)cc7N6)cc5S(=O)(=O)O)c(S(=O)(=O)O)c4)cc3S(=O)(=O)O)c(S(=O)(=O)O)c1)N2,12.3 µM,123 µM,–
Cc1ccc(S(=O)(=O)C(CC(NC=O)S(=O)(=O)c2ccc(C)cc2)NC=O)cc1 (centres undefined),–,–,inactive
CN(C)Cc1cc(N=Nc2ccc(Cl)cc2)ccc1O,> 20 µM,13.5 µM,–
COc1ccc(N2C(=O)C3C=CC(n4[nH]c(=O)n(Cc5ccccc5)c4=O)CC3C2=O)cc1 (centres undefined),> 407 µM,209 µM,–
[N-]=[N+]=CC(=O)CCC(=O)N(c1ccccc1)c1ccccc1,135 µM,195 µM,–
CC1=CCC2CC1NC(=O)CCOCCC(=O)NC2(C)C (centres undefined),> 100 µM,> 100 µM,–
CN1C/C(=C\c2cccs2)c2[nH]c(=O)c(C#N)c(-c3cccs3)c2C1,> 200 µM,> 200 µM,–
OC(C(c1ccccc1)c1ccccn1)(C(F)(F)F)C(F)(F)F (centres undefined),> 200 µM,> 200 µM,–
NC(=O)C(=CNC(=S)Nc1ccc(S(N)(=O)=O)cc1)C(N)=O,> 200 µM,> 200 µM,–
O=c1c2cc([N+](=O)[O-])ccc2n(Cc2ccccc2)n1Cc1ccccc1,> 200 µM,13.2 µM,–
CS/C(=N/N=C/c1ccc2ccccc2n1)SS/C(=N/N=C\c1ccc2ccccc2n1)SC,> 200 µM,178 µM,–
COc1c(Cl)cc(Cl)cc1S(=O)O,–,–,inactive
O=Nc1c(NO)ccc2nn(-c3ccccc3)nc12,> 20 µM,1.32 µM,–
COc1cc2c3c(cccc3c1)C(=O)N(CCN(C)C)C2=O,> 200 µM,1.26 µM,–
